In patent publication US20220370396A1, “METHODS FOR MODULATING CONDITIONS OF THE EYE USING NOVEL LATANOPROST COMPOUND OPHTHALMIC COMPOSITIONS” (Somerset Therapeutics LLC, priority 2021, published 2022):

Experiment: Comparative stability testing of latanoprost formulations under refrigerated, room temperature and accelerated conditions
Type: physicochemical
Procedure: Formulations prepared according to the invention as described in Example 1 were tested for stability under refrigerated conditions ((2-8° C.), […] (25° C./60% relative humidity) and accelerated conditions (40° C./75% relative humidity) to determine stability of such formulations. The stability data of the composition provided in Table 1 of Example 1 was also compared with Reference Product (XALATAN®). Stability results are provided in Table 3.
The stability data for the composition of Table 1, Example 1 (comprising the PCCC polyoxyl 40 hydrogenated castor oil), was compared to the composition of Table 2, Example 2, comprising the polysorbate-80.

For polysorbate-80, the “Effect of surfactant on stabilization of latanoprost formulations” value was “marginal effect on stabilization”.
